Non-standard residues stand in square brackets, D forms with d. Residues, ends and D or L forms follow the SMILES beside them. 1Nal = N[C@@H](Cc1cccc2ccccc12)C(=O)O; β3hI = CC[C@H](C)[C@H](N)CC(=O)O; Nle = CCCC[C@H](N)C(=O)O; Aib = CC(C)(N)C(=O)O; βAla = NCCC(=O)O
Biological target: T1, human PTH-1 receptor (Homo sapiens, UniProt Q03431)
T1 construct: expressed in transfected cells; host or cells: HEK-293
T1 sequence (Q03431 27-593): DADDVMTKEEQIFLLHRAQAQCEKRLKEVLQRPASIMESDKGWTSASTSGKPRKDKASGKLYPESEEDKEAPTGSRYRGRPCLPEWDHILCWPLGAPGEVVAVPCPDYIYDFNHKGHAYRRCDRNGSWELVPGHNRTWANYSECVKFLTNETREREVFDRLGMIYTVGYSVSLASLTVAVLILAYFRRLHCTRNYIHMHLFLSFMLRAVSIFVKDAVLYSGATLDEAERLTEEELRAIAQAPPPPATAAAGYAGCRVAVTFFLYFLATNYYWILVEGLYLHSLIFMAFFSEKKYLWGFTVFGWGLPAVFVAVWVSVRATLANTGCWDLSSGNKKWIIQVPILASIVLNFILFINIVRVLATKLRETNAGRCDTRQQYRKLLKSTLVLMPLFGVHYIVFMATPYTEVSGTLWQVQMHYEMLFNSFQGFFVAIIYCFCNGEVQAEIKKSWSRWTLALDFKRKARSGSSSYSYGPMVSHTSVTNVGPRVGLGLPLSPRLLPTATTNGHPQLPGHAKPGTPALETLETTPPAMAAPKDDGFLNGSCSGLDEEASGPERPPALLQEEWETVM
Assay: Reporter gene assay (CRE-luciferase) for agonist activity in transiently transfected HEK-293 cells
Type: cell-based
Conditions: for hPTHR-2/hPTHR-1: Table 3, ratio of EC50 values, selectivity for hPTH-1 receptor over hPTH-2 receptor
Outline: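 HEK-293 cells transiently transfected with SV40-driven human PTH-1 receptor and CRE-luciferase reporter, exposed to serial compound dilutions for 4-5 h, then lysed for luciferase readout; efficacy and EC50 by non-linear regression, PTH (1-34) as internal control, n≥3. Selectivity measured in analogous human PTH-2 receptor luciferase reporter assays.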

CCCC[C@H](NC(=O)[C@H](CC(C)C)NC(=O)[C@H](CCC(N)=O)NC(=O)[C@@H](NC(=O)[C@H](CCC(=O)O)NC(=O)[C@H](CO)NC(=O)[C@@H](NC(=O)[C@@H](N)CO)C(C)C)[C@@H](C)CC)C(=O)N[C@@H](Cc1c[nH]cn1)C(=O)N[C@@H](CC(N)=O)C(=O)N[C@@H](CC(C)C)C(=O)NCC(=O)N[C@@H](CCCCN)C(=O)N[C@@H](Cc1c[nH]cn1)C(=O)N[C@@H](CC(C)C)C(=O)N[C@@H](CCCCN)C(=O)N[C@@H](CO)C(=O)N[C@H](CC(=O)N[C@@H](CCC(=O)O)C(=O)N[C@@H](CCCNC(=N)N)C(=O)N[C@H](C(=O)N[C@@H](CCC(=O)O)C(=O)N[C@@H](Cc1cccc2ccccc12)C(=O)N[C@@H](CC(C)C)C(=O)N[C@@H](CCCNC(=N)N)C(=O)N[C@@H](CCCCN)C(=O)N[C@@H](CC(C)C)C(=O)N[C@@H](CC(C)C)C(=O)N[C@@H](CCC(N)=O)C(=O)N[C@@H](CC(=O)O)C(=O)N[C@H](C(=O)N[C@@H](Cc1c[nH]cn1)C(=O)N[C@@H](CC(N)=O)C(=O)N[C@@H](Cc1ccccc1)C(N)=O)C(C)C)C(C)C)[C@@H](C)CC [SEQ ID NO: 34, [Nle^8, Lys^16, β-hIle^18,1-Nal^23, Leu^27] hPTH (1-34)-NH2] (H-SVSEIQL[Nle]HNLGKHLKS[β3hI]ERVE[1Nal]LRKLLQDVHNF-NH2; N-terminus assumed)
EC50: 0.08 nM
hPTHR-2/hPTHR-1: 373

CCCC[C@H](NC(=O)CCNC(=O)[C@H](CC(N)=O)NC(=O)[C@H](CC(C)C)NC(=O)[C@H](Cc1c[nH]cn1)NC(=O)[C@H](CCCCN)NC(=O)CNC(=O)[C@H](CC(C)C)NC(=O)[C@H](CC(N)=O)NC(=O)[C@H](Cc1c[nH]cn1)NC(=O)[C@H](CCCC)NC(=O)[C@H](CC(C)C)NC(=O)[C@H](CCC(N)=O)NC(=O)[C@@H](NC(=O)[C@H](CCC(=O)O)NC(=O)[C@H](CO)NC(=O)[C@@H](NC(=O)[C@H](C)N)C(C)C)[C@@H](C)CC)C(=O)N[C@@H](CCC(=O)O)C(=O)N[C@@H](CCCNC(=N)N)C(=O)N[C@H](C(=O)N[C@@H](CCC(=O)O)C(=O)N[C@@H](Cc1cccc2ccccc12)C(=O)N[C@@H](CC(C)C)C(=O)N[C@@H](CCCNC(=N)N)C(=O)N[C@@H](CCCCN)C(=O)N[C@@H](CC(C)C)C(=O)N[C@@H](CC(C)C)C(=O)N[C@@H](CCC(N)=O)C(=O)N[C@@H](CC(=O)O)C(=O)N[C@H](C(=O)N[C@@H](Cc1c[nH]cn1)C(=O)N[C@@H](CC(N)=O)C(=O)N[C@@H](Cc1ccccc1)C(N)=O)C(C)C)C(C)C [SEQ ID NO: 14, [Ala^1, Nle^8,18, β-Ala^17,1-Nal^23, Leu^27] hPTH (1-34)-NH2] (H-AVSEIQL[Nle]HNLGKHLN[βAla][Nle]ERVE[1Nal]LRKLLQDVHNF-NH2; N-terminus assumed)
hPTHR-2/hPTHR-1: 449

CCCC[C@H](NC(=O)[C@H](CC(C)C)NC(=O)[C@H](CCC(N)=O)NC(=O)[C@@H](NC(=O)[C@H](CCC(=O)O)NC(=O)[C@H](CO)NC(=O)[C@@H](NC(=O)C(C)(C)N)C(C)C)[C@@H](C)CC)C(=O)N[C@@H](Cc1c[nH]cn1)C(=O)N[C@@H](CCC(=O)O)C(=O)N[C@@H](CC(C)C)C(=O)NCC(=O)N[C@@H](CCCCN)C(=O)N[C@@H](Cc1c[nH]cn1)C(=O)N[C@@H](CC(C)C)C(=O)N[C@@H](CCCCN)C(=O)N[C@@H](CO)C(=O)N[C@H](CC(=O)N[C@@H](CCC(=O)O)C(=O)N[C@@H](CCCNC(=N)N)C(=O)N[C@H](C(=O)N[C@@H](CCC(=O)O)C(=O)N[C@@H](Cc1cccc2ccccc12)C(=O)N[C@@H](CC(C)C)C(=O)N[C@@H](CCCNC(=N)N)C(=O)N[C@@H](CCCCN)C(=O)N[C@@H](CC(C)C)C(=O)N[C@@H](CC(C)C)C(=O)N[C@@H](CCC(N)=O)C(=O)N[C@@H](CCC(=O)O)C(=O)N[C@H](C(=O)N[C@@H](Cc1c[nH]cn1)C(=O)N[C@@H](CCC(=O)O)C(=O)N[C@@H](CCCCN)C(N)=O)C(C)C)C(C)C)[C@@H](C)CC [SEQ ID NO: 50, [Aib^1, Nle^8, Glu^10, Lys^16, β-hIle^18,1-Nal^23, Leu^27, Glu^30, Glu^33, Lys^34] hPTH(1-34)-NH2] (H-[Aib]VSEIQL[Nle]HELGKHLKS[β3hI]ERVE[1Nal]LRKLLQEVHEK-NH2; N-terminus assumed)
EC50: 0.04 nM
hPTHR-2/hPTHR-1: 22
